ChEMBL document CHEMBL1144403, “Novel immunomodulator FTY720 is phosphorylated in rats and humans to form a single stereoisomer. Identification, chemical proof, and biological characterization of the biologically active species and its enantiomer” (J Med Chem, 2005)

Legend:
Format in all cases: functional, cell-based
[1] = target: T1, Sphingosine 1-phosphate receptor 4 (Homo sapiens, UniProt O95977); test: Agonism of human S1P-4 receptor expressed in CHO cells, 90-120 min in pH 7.4 using [35S]GTP-gamma-S as radioligand
T1 sequence (O95977 whole entry): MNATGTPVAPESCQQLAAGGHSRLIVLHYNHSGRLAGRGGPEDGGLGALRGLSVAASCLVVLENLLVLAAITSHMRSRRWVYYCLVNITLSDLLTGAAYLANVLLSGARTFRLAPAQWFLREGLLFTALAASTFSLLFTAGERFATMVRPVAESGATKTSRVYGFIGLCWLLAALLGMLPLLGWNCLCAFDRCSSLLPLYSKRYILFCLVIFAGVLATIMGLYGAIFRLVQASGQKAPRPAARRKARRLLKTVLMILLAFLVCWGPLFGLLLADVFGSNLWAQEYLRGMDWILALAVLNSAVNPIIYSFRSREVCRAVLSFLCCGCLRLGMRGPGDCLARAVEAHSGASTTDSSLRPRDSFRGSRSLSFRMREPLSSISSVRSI

[2] = target: Sphingosine 1-phosphate receptor 2 (Homo sapiens, UniProt O95136); test: Agonism of human S1P-2 receptor expressed in CHO cells, 90-120 min in pH 7.4 using [35S]GTP-gamma-S as radioligand
[3] = target: Sphingosine 1-phosphate receptor 3 (Homo sapiens, UniProt Q99500); test: Agonism of human S1P-3 receptor expressed in CHO cells, 90-120 min in pH 7.4 using [35S]GTP-gamma-S as radioligand
[4] = target: Sphingosine 1-phosphate receptor 5 (Homo sapiens, UniProt Q9H228); test: Agonism of human S1P-5 receptor expressed in CHO cells, 90-120 min in pH 7.4 using [35S]GTP-gamma-S as radioligand
Sequence of Sphingosine 1-phosphate receptor 5 (Q9H228 whole entry): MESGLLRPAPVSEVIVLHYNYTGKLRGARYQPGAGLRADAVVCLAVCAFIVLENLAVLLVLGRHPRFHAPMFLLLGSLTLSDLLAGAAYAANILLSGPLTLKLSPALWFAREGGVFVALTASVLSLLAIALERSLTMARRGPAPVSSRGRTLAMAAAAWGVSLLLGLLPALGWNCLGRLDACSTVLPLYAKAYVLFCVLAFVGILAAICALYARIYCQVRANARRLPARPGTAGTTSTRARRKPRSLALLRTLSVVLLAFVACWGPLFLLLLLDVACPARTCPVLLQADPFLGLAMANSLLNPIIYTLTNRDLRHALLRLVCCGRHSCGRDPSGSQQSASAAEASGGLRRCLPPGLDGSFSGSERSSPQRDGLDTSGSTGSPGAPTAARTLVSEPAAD

Sequence of Sphingosine 1-phosphate receptor 2 (O95136 whole entry): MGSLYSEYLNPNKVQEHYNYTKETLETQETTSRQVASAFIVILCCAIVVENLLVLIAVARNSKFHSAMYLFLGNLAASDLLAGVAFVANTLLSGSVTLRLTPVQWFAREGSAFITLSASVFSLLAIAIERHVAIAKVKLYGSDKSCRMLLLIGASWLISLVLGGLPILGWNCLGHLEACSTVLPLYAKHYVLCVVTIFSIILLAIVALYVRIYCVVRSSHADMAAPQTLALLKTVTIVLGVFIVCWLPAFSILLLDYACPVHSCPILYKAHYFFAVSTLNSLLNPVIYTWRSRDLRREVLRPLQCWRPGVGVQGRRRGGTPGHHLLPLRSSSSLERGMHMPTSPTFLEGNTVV
Sequence of Sphingosine 1-phosphate receptor 3 (Q99500 whole entry): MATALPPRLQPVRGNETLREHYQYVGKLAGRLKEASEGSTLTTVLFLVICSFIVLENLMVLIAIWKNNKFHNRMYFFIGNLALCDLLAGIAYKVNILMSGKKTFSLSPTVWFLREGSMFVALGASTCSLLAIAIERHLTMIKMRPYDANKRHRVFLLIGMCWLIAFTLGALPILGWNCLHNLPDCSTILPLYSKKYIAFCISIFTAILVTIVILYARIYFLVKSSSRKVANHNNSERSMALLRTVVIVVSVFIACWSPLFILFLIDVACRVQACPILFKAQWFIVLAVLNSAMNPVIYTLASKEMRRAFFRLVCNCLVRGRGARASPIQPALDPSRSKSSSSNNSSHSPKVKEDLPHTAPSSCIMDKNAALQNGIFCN

EC50 [1] [nM] | EC50 [2] [nM] | EC50 [3] [nM] | EC50 [4] [nM] | SMILES
80.1 |  |  |  | CCCCCCCCc1ccc(CC[C@@](N)(CO)COP(=O)(O)O)cc1
2.4 |  |  |  | CCCCCCCCc1ccc(CCC(N)(CO)COP(=O)(O)O)cc1 (racemic)
> 10000 | > 10000 | > 10000 | > 10000 | CCCCCCCCc1ccc(CCC(N)(CO)CO)cc1 [FINGOLIMOD]
0.6 |  |  |  | CCCCCCCCc1ccc(CC[C@](N)(CO)COP(=O)(O)O)cc1 [FTY720-P]
